The nature of this series: Identification of absorbed peptides in plasma (PDA-HPLC, LC-MS/MS). Particulars: pigs fed Peptide Composition 1 (Example 1), blood collected during dissection; 3 peptide peaks present. It counts as in vivo. On the procedure:
First, between 3 and 5 day-old 18 pigs were divided into 3 groups and they were bred for 3 days. Then the groups were designated as test groups (Example 1 and Comparative Example 1) and a control group (Comparative Example 2) and 1.25 g of dextran sulfate per kg of body weight was given as drinking water for 5 days (DSS treatment). Then, 250 mg of Peptide Composition 1 per kg of body weight was fed for 5 days in Example 1, 250 mg of Peptide Composition 2 per kg of body weight was fed for 5 days in Comparative Example 1, and alanine corresponding to the nitrogen content of the peptide was fed in Comparative Example 2. After that, the intestinal tract cells were collected during dissection and cytokines were measured. Comparative Example 2 corresponds to the control. (Dextran sulfate is a substance which induces bowel inflammation. International J. of Colorectal Disease, 15, 144-160 (2000))
Blood was collected during dissection and plasma was isolated, and then the structural analysis of a peak obtained by PDA-HPLC was carried out by LC-MS/MS to identify an amino acid sequence of the peptides.

Each structure is given as a SMILES string. Residues, ends and D or L forms follow the SMILES beside them.

As to `CC(C)C[C@H](NC(=O)[C@@H](N)Cc1ccccc1)C(=O)N[C@H](C(=O)O)C(C)C` [FLV, Phe-Leu-Val] (H-Phe-Leu-Val-OH; N-terminus and C-terminus assumed), the “peptide peak present in plasma” value was “largest peak”.

The values are drawn from patent US20120157395A1, “ANTI-INFLAMMATORY AGENT FOR ORAL APPLICATION, AND ANTI-INFLAMMATORY PEPTIDE FOR ORAL APPLICATION” (priority 2009, published 2012).
